Results taken from ChEMBL document CHEMBL5715956, “Selective Targeting of Bromodomains of the Bromodomain-PHD Fingers Family Impairs Osteoclast Differentiation” (ACS Chem Biol, 2017).

Tests used:
[1] = target: T1, Peregrin (Homo sapiens) (UniProt P55201); experiment: Binding affinity to […] (unknown origin) assessed as change in enthalpy at 17 uM by Isothermal titration calorimetry
T1 sequence (whole entry): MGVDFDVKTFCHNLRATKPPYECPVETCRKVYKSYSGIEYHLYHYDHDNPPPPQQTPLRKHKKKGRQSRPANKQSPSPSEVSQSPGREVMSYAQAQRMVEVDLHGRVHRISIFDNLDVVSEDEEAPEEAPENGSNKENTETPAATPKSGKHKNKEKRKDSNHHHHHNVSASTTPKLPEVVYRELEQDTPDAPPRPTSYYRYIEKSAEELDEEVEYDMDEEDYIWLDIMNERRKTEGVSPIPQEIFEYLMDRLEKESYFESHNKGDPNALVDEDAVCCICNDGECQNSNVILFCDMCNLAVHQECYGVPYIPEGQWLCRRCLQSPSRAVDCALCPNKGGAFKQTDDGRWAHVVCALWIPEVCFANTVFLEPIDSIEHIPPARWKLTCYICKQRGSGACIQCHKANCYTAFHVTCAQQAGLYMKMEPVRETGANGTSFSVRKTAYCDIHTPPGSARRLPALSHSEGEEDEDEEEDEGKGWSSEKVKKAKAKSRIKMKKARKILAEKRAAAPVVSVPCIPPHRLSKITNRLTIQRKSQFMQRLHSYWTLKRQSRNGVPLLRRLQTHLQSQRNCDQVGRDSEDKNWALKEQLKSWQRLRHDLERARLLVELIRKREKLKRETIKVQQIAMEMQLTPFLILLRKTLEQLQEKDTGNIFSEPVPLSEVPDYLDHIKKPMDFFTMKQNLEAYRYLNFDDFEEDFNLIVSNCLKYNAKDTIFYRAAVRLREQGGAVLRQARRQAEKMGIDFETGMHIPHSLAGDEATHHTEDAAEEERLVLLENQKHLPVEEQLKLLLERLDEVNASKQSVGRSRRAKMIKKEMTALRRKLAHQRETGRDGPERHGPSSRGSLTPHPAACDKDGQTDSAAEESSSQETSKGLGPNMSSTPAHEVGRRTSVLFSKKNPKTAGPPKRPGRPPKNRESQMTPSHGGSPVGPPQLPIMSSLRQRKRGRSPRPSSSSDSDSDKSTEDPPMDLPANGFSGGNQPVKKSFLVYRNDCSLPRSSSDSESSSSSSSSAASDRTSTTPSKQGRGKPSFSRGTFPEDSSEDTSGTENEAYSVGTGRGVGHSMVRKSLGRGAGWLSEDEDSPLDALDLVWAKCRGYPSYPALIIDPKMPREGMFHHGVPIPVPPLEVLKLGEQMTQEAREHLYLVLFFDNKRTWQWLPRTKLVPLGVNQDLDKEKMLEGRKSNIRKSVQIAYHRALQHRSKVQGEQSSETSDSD

[2] = target: Bromodomain-containing protein 4 (Homo sapiens) (UniProt O60885); experiment: Binding affinity to BRD4 BD1 (unknown origin) assessed as change in enthalpy at 14 uM by Isothermal titration calorimetry
[3] = target: T1, Peregrin (Homo sapiens); experiment: Binding affinity to […] (unknown origin) assessed as change in entropy at 17 uM by Isothermal titration calorimetry
[4] = target: T1, Peregrin (Homo sapiens); experiment: Binding affinity to […] (unknown origin) assessed as change in entropy TdeltaS at 17 uM by Isothermal titration calorimetry
[5] = target: Bromodomain-containing protein 4 (Homo sapiens) (UniProt O60885); experiment: Binding affinity to BRD4 BD1 (unknown origin) assessed as change in entropy TdeltaS at 14 uM by Isothermal titration calorimetry
[6] = target: T2, Bromodomain-containing protein 1 (Homo sapiens) (UniProt O95696); experiment: Binding affinity to BRPF2 (unknown origin) assessed as change in gibbs free energy at 12 uM by Isothermal titration calorimetry
T2 sequence (whole entry): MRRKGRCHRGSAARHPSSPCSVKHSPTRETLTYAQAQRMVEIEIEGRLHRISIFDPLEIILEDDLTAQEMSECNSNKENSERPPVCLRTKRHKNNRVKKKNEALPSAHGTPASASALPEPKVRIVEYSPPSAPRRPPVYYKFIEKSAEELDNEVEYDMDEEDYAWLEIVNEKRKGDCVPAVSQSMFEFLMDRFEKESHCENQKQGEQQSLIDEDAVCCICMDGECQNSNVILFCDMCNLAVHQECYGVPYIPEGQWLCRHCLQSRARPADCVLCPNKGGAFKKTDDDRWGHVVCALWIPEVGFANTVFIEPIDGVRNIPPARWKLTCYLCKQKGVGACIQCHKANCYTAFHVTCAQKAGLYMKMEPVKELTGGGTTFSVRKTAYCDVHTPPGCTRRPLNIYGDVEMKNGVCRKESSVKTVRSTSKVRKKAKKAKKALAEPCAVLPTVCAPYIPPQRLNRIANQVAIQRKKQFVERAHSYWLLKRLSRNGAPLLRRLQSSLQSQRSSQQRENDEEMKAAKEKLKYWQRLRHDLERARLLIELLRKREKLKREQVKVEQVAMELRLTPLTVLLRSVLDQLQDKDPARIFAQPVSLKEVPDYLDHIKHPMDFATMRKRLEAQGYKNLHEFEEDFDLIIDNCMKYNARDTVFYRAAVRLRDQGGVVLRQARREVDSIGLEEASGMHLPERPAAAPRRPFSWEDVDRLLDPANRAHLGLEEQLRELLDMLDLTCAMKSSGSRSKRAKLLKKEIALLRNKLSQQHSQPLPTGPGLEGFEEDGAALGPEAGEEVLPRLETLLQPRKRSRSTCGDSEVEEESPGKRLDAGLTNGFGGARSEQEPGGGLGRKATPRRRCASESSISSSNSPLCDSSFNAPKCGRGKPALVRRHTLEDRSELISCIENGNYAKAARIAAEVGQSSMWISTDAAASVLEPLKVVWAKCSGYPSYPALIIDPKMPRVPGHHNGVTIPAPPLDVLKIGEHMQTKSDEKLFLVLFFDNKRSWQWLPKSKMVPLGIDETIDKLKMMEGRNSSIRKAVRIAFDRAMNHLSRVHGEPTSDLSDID

[7] = target: Bromodomain-containing protein 3 (Homo sapiens) (UniProt Q15059); settings: dose 10.0 µM
[8] = target: Bromodomain-containing protein 4 (Homo sapiens) (UniProt O60885); settings: dose 10.0 µM
[9] = target: Bromodomain testis-specific protein (Homo sapiens) (UniProt Q58F21); settings: dose 10.0 µM
[10] = species on record: Homo sapiens; settings: dose 10.0 µM
[11] = target: Chromatin remodeling regulator CECR2 (Homo sapiens) (UniProt Q9BXF3); settings: dose 10.0 µM
[12] = target: Transcription intermediary factor 1-alpha (Homo sapiens) (UniProt O15164); settings: dose 10.0 µM
[13] = target: Transcription intermediary factor 1-beta (Homo sapiens) (UniProt Q13263); settings: dose 10.0 µM
[14] = target: Bromodomain and WD repeat-containing protein 1 (Homo sapiens) (UniProt Q9NSI6); settings: dose 10.0 µM

Transcription intermediary factor 1-alpha (Homo sapiens), sequence (O15164 whole entry): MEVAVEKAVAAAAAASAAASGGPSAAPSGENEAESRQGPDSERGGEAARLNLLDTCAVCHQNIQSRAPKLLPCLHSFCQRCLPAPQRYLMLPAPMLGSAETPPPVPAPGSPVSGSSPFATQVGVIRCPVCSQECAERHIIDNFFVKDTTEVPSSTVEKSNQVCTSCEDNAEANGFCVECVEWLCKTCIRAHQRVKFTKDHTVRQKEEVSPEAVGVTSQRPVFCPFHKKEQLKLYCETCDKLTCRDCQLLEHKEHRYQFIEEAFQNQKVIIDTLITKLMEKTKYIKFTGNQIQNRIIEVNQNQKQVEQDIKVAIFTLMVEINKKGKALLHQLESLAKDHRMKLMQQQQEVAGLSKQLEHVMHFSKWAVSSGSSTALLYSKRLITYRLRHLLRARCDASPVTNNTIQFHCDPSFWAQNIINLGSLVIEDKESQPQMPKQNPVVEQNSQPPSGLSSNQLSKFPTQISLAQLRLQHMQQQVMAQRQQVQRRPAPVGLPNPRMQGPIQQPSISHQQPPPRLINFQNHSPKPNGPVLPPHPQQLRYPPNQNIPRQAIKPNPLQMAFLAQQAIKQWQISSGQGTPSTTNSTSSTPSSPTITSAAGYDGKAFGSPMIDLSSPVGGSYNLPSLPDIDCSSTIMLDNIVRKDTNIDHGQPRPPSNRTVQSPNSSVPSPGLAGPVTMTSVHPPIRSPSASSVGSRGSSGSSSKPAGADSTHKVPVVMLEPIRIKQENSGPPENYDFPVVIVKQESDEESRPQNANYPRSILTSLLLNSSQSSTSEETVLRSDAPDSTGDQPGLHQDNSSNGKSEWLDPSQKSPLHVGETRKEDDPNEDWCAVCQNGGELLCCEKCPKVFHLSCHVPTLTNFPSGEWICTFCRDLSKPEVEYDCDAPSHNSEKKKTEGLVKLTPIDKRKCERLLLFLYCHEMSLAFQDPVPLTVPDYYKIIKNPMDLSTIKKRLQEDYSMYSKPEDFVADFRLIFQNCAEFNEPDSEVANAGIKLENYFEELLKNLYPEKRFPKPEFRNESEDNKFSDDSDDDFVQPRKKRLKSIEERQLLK
Transcription intermediary factor 1-beta (Homo sapiens), sequence (Q13263 whole entry): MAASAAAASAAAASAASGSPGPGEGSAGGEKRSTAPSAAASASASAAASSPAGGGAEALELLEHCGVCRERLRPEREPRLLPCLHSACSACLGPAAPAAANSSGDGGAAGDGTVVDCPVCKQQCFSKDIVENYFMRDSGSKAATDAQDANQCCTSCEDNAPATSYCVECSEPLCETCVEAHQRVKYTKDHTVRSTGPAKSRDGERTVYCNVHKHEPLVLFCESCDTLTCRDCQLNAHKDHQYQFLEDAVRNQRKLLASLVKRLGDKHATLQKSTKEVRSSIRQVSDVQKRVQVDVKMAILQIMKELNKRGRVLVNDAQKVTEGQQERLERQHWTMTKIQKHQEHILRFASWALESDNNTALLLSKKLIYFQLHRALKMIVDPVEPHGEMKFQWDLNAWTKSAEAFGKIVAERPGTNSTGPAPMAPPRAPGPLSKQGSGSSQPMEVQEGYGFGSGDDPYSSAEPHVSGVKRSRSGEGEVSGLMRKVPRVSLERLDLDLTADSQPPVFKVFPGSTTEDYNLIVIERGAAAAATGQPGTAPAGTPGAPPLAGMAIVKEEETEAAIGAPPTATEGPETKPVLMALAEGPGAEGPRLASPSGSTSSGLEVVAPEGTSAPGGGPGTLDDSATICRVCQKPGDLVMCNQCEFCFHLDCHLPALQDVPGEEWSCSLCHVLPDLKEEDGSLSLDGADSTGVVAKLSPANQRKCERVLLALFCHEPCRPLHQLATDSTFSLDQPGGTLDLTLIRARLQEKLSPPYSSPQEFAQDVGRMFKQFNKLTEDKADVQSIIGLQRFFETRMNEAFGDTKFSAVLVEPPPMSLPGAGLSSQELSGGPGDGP
Chromatin remodeling regulator CECR2 (Homo sapiens), sequence (Q9BXF3 whole entry, looked up): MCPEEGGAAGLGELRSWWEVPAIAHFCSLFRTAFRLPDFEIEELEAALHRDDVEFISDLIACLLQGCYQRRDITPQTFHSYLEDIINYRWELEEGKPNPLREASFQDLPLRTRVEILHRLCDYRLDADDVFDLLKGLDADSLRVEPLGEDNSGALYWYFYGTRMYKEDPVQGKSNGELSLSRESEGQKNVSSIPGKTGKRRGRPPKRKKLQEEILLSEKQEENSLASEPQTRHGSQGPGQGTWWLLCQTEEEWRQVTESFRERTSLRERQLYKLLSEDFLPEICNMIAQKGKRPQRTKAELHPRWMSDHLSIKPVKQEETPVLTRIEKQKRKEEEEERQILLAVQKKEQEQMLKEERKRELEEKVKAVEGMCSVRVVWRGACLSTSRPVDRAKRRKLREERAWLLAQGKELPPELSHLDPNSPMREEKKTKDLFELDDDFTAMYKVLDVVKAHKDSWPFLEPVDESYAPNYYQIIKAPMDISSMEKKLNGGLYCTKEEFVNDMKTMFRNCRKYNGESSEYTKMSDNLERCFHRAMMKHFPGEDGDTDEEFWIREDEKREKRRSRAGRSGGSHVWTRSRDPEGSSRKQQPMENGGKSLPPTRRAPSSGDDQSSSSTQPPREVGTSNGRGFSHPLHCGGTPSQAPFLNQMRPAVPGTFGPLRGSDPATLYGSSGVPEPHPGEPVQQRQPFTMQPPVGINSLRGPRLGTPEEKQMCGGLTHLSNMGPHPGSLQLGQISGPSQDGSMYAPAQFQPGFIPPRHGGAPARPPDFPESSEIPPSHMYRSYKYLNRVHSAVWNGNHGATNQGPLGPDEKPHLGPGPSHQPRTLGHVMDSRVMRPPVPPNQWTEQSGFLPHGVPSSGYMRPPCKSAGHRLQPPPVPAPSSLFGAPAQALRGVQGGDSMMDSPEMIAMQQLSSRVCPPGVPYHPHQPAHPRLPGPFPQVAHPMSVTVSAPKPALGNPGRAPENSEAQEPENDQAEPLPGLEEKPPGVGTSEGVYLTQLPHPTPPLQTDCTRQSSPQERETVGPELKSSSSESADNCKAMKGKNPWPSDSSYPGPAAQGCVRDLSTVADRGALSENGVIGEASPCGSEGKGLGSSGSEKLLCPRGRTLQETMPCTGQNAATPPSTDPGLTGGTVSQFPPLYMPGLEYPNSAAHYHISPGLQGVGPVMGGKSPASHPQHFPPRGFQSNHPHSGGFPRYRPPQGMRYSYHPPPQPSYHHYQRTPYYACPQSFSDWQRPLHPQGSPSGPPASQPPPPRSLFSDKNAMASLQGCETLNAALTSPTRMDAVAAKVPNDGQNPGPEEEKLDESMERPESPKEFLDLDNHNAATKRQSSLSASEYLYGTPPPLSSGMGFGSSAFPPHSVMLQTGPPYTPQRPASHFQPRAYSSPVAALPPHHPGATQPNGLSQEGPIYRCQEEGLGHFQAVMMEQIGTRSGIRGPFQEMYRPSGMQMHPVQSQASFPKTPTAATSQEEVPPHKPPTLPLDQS
Bromodomain-containing protein 3 (Homo sapiens), sequence (Q15059 2-726 limits assumed): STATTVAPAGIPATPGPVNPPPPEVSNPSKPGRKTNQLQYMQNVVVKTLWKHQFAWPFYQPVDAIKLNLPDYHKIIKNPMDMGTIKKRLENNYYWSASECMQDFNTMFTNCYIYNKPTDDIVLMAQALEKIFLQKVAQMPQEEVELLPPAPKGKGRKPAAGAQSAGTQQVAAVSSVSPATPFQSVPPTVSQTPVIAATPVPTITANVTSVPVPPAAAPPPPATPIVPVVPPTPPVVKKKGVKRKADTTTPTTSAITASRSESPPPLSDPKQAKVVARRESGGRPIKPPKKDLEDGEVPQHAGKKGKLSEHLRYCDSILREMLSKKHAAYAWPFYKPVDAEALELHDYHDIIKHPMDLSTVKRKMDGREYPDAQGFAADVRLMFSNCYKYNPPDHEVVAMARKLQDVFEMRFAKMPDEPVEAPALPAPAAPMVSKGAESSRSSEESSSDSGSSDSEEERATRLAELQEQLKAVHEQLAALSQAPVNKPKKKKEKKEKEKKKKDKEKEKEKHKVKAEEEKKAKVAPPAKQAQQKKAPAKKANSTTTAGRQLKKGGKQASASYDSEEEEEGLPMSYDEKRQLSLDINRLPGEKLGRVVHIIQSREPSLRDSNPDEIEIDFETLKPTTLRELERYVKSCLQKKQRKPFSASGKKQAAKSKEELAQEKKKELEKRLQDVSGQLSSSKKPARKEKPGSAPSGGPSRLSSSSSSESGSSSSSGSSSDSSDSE

`COc1cc2c(cc1NS(=O)(=O)c1ccc(Br)cc1C)n(C)c(=O)n2C` gave a deltaH [1] of -12.6 kcal/mol, a deltaH [2] of -6.93 kcal/mol and a deltaS [3] of -0.012 kcal/mol/K. It also gave a TdeltaS [4] of -3.34 kcal/mol, a TdeltaS [5] of 0.198 kcal/mol and a deltaG [6] of -8.3 kcal/mol. It also gave a ΔTm [7] of 1.4 °C, a ΔTm [8] of 2 °C and a ΔTm [9] of 0.8 °C. For the same molecule, the ΔTm [10] was 0.5 °C, the ΔTm [11] was 0.1 °C and the ΔTm [12] was 1.6 °C. For the same molecule, the ΔTm [13] was 0.2 °C and the ΔTm [14] was 1 °C.
